Data published in ChEMBL document CHEMBL1201862, “PubChem BioAssay data set” (2004).
Blank lines part the entries; values can stand above or below the compound they belong to. Activity calls are given as the source filed them.

Experiments:
[1] = biological target: T1, E3 ubiquitin-protein ligase XIAP (Homo sapiens, UniProt P98170); experiment: Counter Screen using XIAP-Bir3 for Chemical Antagonists of Bir1/2 domains of IAP-family anti-apoptotic proteins. [Related pubchem assays (depositor defined):AID1018, AID1449, AID1514, AID1638, AID1749, AID1750, AID488957, AID488963]
[2] = biological target: T1, E3 ubiquitin-protein ligase XIAP; experiment: XIAP antagonists, biochemical, IAP family, fluorescence polarization (AID 1018); format: functional
[3] = biological target: Tumor necrosis factor (Homo sapiens, UniProt P01375); experiment: TNFa-triggered NF-kB activation inhibitors, SAR follow-up, cell-based, revised (AID 2337); format: functional
[4] = biological target: Nucleotide-binding oligomerization domain-containing protein 1 (Homo sapiens, UniProt Q9Y239); experiment: NOD1 signaling inhibitors, SAR follow-up, revised (AID 2333); format: functional
[5] = test system: HEK293; experiment: cells; settings: Homo sapiens;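 also: cells exposed to compound for 14 hours overnight before viability readout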
[6] = biological target: Acyl-homoserine lactone acylase PvdQ (Pseudomonas aeruginosa (strain LESB58), UniProt Q9I194); experiment: P. aeruginosa PvdQ acylase inhibitors, dose response, biochemical, fluorescence, plate reader and imaging, cherry-picks (AID 493231)
[7] = biological target: T2, Sphingosine 1-phosphate receptor 4 (Homo sapiens, UniProt O95977); experiment: Late-stage fluorescence dose response cell-based assay to identify agonists of the Sphingosine 1-Phosphate Receptor 4 (S1P4): purchased compounds EC50. [Related pubchem assays (depositor defined):AID1509, AID1523, AID1563, AID1686, AID1701, AID1801]; format: functional
T2 sequence (O95977 whole entry): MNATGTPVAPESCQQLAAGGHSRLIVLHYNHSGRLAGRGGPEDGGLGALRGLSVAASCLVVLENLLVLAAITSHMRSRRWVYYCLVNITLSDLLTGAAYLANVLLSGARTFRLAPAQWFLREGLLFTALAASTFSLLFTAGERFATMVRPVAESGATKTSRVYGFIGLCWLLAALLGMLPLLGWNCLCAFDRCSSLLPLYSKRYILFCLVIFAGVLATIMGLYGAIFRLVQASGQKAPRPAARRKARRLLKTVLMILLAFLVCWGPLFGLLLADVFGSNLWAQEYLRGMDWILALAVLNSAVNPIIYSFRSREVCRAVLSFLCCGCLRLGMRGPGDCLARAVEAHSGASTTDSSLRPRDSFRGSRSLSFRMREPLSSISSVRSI

[8] = biological target: Mucolipin-3 (Homo sapiens, UniProt Q8TDD5); experiment: Dose response cell-based high-throughput screening assay for agonists of the transient receptor potential channel ML3 (TRPML3). [Related pubchem assays: 1526, 1424, 1448 ]; format: functional
[9] = biological target: Ion channel NompC (Danio rerio, UniProt Q7T1G6); experiment: Fluorescence counterscreen assay for TRPML3 agonists: dose response cell-based high-throughput screening assay to identify agonists of the transient receptor potential channel N1 (TRPN1). [Related pubchem assays: 1526, 1424, 1448 ]; format: functional
[10] = biological target: Hexokinase (Trypanosoma brucei, UniProt Q38C41); experiment: Confirmation assay for inhibitors of Trypanosoma brucei hexokinase 1-Analogue-first series. [Related pubchem assays (depositor defined):AID1430, AID1632, AID2516, AID2560, AID2579, AID2600, AID449725, AID492951]; format: functional
[11] = biological target: T3, Coagulation factor XII (Homo sapiens, UniProt P00748); experiment: FXIIa inhibitor potency, concentration-response, biochemical (AID 716); format: functional
T3 sequence (P00748 whole entry): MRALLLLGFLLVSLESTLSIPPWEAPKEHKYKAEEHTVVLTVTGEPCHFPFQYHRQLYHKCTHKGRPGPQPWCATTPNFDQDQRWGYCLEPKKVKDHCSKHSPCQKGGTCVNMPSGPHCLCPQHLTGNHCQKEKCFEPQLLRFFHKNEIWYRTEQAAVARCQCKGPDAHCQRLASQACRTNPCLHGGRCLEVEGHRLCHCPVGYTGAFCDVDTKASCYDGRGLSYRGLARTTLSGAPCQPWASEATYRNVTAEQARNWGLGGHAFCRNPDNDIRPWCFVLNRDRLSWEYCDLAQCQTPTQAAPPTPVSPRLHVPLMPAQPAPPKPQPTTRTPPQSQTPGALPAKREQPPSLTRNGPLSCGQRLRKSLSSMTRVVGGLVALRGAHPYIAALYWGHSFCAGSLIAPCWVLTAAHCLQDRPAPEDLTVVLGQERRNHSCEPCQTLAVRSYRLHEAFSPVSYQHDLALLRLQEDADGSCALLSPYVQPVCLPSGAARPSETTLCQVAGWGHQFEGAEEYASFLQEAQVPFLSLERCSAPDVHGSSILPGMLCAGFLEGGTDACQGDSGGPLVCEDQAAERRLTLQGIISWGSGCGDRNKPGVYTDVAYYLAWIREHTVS

[12] = biological target: Genome polyprotein (dengue virus type 2, UniProt P29990); experiment: Dengue-2 NS5 methyltransferase inhibitors, primary screen, biochemical, confirmation dose response (AID 588689); format: functional
[13] = biological target: NADPH oxidase 1 (Homo sapiens, UniProt Q9Y5S8); format: functional, cell-based;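 also: Cell-based assay with luminescence read-out, IC50 derived from inhibitor dose-response curves; intracellular ROS from endogenous NOX1 in intact HT29 colon cancer cells; potency of inhibitors that lower the ROS luminescence signal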
[14] = biological target: Sphingosine 1-phosphate receptor 1 (Homo sapiens, UniProt P21453); experiment: Fluorescence-based counterscreen assay for S1P4 agonists: Cell-based dose response high throughput screening assay to identify agonists of the Sphingosine 1-Phosphate Receptor 1 (S1P1). [Related pubchem assays (depositor defined):AID1509, AID1523, AID1801, AID463107, AID463118, AID463119, AID463122, AID463123, AID463129, AID463225, AID504400, AID504460]; format: functional
[15] = biological target: T2, Sphingosine 1-phosphate receptor 4; experiment: Fluorescence dose response cell-based high throughput screening assay for agonists of the Sphingosine 1-Phosphate Receptor 4 (S1P4). [Related pubchem assays: 1509 (Primary screen.), 1523 (Confirmation screen in triplicates.)]; format: functional
[16] = biological target: Bcl-2-like protein 10 (Homo sapiens, UniProt Q9HD36); experiment: displacers of TR3 peptide from Bcl-B, primary screen, selectivity assay for Bfl-1 inhibitor project, biochemical, fluorescence polarization, FITC-TR3 peptide (AID 748);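 also: fluorescence polarization from a fluorescein-labelled TR3 peptide binding purified Bcl-B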
[17] = biological target: Induced myeloid leukemia cell differentiation protein Mcl-1 (Homo sapiens, UniProt Q07820); experiment: MCL1-BIM BH3 interaction inhibitors, dose response, biochemical, fluorescence polarization, BIM-BH3 peptide, 1536-well (AID 2217)
[18] = biological target: Estrogen receptor beta (Homo sapiens, UniProt Q92731); experiment: ERβ–SRC-3 coactivator interaction inhibitors, confirmation, orthogonal assay, biochemical, ELISA, streptavidin-HRP readout (AID 1060)
[19] = biological target: Bcl-2-like protein 1 (Homo sapiens, UniProt Q07817); experiment: BCL-XL inhibitors, dose response, selectivity assay for MCL1 inhibitor project, biochemical, fluorescence polarization, 1536-well (AID 2218)
[20] = biological target: Protein Tat (Human immunodeficiency virus type 1 group M subtype B (isolate HXB2)(HIV-1), UniProt P04608); format: functional;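 also: tat binding to TAR RNA read out by fluorescence polarization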
[21] = THP-1 cell cytotoxicity, dose response, cytotoxicity control for Vif-APOBEC3G degradation inhibitor project, THP-1 cells (AID 1117359); format: functional; settings: Human immunodeficiency virus 1, THP-1
[22] = biological target: Glyceraldehyde-3-phosphate dehydrogenase (Homo sapiens, UniProt P04406)
[23] = biological target: T4, Alkaline phosphatase, tissue-nonspecific isozyme (Homo sapiens, UniProt P05186); experiment: human TNAP enzyme inhibitors, SAR follow-up, biochemical, luminescent, dose response (AID 1056)
T4 sequence (P05186 whole entry): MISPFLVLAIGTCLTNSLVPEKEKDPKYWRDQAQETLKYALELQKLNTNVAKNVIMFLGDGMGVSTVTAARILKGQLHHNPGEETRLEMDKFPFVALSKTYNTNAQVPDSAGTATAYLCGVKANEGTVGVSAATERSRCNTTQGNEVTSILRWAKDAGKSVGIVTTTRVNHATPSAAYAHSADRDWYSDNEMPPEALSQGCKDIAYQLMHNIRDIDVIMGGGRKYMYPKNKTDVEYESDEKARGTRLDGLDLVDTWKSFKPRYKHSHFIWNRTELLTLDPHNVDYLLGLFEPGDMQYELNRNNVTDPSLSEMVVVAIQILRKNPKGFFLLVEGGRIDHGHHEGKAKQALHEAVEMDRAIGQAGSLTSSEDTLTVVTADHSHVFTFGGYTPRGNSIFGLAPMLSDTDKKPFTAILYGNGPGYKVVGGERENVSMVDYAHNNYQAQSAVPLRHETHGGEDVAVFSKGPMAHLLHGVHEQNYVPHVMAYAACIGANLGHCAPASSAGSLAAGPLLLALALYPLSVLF

[24] = biological target: T5, Tyrosine-protein phosphatase non-receptor type 7 (Homo sapiens, UniProt P35236); experiment: inhibitors of human HePTP phosphatase, […], biochemical, absorbance, leukemia target (AID 521); format: functional
T5 sequence (P35236 whole entry): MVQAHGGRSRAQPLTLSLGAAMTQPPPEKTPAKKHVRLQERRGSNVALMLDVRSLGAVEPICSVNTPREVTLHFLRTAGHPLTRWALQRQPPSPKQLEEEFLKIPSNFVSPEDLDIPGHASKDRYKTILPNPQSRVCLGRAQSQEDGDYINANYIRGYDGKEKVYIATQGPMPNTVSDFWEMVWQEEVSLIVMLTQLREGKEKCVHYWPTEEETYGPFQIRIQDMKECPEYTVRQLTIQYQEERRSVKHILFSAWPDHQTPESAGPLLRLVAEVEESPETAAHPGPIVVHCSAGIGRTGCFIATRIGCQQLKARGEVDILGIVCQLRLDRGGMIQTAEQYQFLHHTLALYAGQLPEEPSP

[25] = biological target: T6, Dual specificity protein phosphatase 6 (Rattus norvegicus, UniProt Q64346); experiment: MKP-3 phosphatase inhibitors, primary screen, biochemical, rat enzyme, in vitro (AID 425)
T6 sequence (Q64346 whole entry): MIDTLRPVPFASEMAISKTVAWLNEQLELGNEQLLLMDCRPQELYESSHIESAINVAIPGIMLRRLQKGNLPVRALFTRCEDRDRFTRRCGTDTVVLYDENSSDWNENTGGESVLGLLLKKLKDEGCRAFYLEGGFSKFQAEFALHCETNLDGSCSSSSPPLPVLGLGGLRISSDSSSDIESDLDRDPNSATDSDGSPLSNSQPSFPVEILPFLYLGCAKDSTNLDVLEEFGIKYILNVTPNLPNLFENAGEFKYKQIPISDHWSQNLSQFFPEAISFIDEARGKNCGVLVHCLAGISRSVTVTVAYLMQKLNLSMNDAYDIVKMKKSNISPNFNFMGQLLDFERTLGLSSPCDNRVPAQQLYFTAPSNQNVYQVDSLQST

[26] = biological target: Eukaryotic translation initiation factor 4E (Mus musculus, UniProt P63073); experiment: eIF4E–eIF4G protein interaction inhibitors, dose response, biochemical, TR-FRET (AID 855); format: functional;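 also: potency for disrupting eIF4E binding to eIF4GI seen as loss of FRET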

T1 sequence (P98170 whole entry): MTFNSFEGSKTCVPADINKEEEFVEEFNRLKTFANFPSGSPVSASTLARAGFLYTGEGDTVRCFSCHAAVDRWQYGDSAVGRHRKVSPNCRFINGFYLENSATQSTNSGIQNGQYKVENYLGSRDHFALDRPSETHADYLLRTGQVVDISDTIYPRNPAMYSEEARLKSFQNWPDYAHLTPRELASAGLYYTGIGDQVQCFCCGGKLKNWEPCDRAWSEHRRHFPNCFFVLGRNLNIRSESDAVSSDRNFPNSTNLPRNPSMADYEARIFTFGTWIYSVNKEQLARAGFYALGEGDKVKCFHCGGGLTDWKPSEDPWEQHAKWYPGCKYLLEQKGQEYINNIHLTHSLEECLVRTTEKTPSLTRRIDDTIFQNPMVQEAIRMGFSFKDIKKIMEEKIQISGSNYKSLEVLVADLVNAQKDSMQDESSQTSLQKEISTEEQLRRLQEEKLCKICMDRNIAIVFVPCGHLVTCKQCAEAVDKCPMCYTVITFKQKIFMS
Chain of Mucolipin-3 (Q8TDD5 whole entry): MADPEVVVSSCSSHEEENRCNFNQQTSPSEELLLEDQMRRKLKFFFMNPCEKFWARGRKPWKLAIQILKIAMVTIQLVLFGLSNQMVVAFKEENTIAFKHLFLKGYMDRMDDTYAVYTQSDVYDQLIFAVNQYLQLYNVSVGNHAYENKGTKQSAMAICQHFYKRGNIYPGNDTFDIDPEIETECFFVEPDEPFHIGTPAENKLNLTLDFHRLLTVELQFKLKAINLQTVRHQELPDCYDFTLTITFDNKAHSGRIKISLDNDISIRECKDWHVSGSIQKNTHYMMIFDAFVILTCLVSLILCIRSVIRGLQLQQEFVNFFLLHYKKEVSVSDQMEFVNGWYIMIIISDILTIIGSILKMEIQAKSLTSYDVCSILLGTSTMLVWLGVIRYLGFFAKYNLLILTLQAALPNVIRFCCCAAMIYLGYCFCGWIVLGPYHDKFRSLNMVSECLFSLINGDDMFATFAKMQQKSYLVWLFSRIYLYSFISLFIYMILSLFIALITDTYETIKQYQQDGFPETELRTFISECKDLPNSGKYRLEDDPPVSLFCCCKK
Chain of Sphingosine 1-phosphate receptor 1 (P21453 whole entry): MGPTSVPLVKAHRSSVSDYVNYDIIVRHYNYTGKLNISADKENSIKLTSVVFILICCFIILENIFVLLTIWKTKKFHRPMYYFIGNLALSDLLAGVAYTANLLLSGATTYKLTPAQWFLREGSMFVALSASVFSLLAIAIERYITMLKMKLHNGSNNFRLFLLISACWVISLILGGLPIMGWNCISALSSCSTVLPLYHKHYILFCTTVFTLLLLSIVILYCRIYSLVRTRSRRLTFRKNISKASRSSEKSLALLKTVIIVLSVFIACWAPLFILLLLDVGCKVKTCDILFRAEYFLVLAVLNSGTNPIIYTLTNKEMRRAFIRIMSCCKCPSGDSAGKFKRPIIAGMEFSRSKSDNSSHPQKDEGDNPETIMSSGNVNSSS
Chain of Hexokinase (Q38C41 whole entry): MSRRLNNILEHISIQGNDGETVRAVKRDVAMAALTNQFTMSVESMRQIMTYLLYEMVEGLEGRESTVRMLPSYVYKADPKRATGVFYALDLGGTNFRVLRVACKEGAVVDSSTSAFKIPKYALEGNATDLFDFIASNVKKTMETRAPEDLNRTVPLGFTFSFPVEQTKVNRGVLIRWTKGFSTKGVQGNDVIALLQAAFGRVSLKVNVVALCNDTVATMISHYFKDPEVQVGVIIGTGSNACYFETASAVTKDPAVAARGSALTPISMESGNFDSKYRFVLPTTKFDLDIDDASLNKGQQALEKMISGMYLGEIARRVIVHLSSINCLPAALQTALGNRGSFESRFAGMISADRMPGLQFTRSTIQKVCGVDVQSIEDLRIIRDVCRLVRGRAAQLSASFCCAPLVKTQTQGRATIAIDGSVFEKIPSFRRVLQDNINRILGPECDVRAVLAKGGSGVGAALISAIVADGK
Chain of Ion channel NompC (Q7T1G6 whole entry): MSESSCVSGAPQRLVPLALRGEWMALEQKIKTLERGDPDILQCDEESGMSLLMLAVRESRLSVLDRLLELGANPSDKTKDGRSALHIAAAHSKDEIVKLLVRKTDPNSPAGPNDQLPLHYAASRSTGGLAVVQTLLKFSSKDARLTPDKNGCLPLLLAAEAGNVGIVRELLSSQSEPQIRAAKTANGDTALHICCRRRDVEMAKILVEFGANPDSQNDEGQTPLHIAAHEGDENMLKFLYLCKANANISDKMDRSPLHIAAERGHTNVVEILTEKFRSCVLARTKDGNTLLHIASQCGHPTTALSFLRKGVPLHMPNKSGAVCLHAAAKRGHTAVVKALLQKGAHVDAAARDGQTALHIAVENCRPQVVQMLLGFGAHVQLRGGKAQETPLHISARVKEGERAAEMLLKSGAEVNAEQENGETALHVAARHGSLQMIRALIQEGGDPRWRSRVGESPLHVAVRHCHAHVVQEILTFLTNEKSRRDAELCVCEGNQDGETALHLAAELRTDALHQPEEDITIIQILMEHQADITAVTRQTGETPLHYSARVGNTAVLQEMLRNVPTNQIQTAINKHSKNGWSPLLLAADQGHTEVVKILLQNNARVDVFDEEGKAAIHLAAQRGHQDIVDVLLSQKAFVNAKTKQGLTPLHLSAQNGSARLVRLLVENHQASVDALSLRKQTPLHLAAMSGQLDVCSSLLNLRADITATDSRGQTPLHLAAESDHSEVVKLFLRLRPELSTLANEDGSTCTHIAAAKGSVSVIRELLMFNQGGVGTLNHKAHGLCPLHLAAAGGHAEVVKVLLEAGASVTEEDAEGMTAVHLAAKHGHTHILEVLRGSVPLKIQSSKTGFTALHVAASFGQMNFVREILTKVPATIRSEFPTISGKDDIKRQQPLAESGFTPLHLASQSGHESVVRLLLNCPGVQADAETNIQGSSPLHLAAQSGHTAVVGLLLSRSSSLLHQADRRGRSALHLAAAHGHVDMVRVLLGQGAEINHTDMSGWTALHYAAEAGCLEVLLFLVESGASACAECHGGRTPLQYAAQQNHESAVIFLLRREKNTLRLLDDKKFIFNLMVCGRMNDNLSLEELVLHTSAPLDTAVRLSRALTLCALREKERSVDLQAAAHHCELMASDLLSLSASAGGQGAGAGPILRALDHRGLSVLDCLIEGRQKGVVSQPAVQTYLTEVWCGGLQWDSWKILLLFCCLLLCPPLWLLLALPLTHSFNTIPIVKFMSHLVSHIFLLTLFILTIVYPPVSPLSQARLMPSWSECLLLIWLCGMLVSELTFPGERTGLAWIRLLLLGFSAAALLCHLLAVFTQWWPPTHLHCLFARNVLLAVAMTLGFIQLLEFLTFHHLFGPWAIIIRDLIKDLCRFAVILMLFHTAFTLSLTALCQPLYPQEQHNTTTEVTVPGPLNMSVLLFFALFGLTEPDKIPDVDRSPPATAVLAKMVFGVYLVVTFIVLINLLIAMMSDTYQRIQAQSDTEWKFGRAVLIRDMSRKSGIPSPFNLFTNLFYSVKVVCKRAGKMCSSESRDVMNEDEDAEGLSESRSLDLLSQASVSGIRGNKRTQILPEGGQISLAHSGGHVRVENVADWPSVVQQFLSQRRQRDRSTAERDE
Chain of Glyceraldehyde-3-phosphate dehydrogenase (P04406 whole entry): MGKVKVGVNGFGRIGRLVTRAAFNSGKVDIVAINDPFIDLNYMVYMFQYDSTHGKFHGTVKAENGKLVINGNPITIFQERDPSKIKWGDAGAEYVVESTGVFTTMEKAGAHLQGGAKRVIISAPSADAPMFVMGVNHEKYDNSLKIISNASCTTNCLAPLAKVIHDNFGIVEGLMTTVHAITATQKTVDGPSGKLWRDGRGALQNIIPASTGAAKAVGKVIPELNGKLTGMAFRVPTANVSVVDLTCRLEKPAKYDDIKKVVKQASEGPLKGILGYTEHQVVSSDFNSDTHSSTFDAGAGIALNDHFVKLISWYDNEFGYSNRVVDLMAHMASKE
Chain of Acyl-homoserine lactone acylase PvdQ (Q9I194 24-193 limits assumed): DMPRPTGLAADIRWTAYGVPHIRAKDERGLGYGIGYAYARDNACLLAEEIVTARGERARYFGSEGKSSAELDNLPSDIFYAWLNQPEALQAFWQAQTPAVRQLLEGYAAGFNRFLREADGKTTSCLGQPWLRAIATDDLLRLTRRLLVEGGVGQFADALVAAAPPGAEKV
Chain of Acyl-homoserine lactone acylase PvdQ (Q9I194 217-762 limits assumed): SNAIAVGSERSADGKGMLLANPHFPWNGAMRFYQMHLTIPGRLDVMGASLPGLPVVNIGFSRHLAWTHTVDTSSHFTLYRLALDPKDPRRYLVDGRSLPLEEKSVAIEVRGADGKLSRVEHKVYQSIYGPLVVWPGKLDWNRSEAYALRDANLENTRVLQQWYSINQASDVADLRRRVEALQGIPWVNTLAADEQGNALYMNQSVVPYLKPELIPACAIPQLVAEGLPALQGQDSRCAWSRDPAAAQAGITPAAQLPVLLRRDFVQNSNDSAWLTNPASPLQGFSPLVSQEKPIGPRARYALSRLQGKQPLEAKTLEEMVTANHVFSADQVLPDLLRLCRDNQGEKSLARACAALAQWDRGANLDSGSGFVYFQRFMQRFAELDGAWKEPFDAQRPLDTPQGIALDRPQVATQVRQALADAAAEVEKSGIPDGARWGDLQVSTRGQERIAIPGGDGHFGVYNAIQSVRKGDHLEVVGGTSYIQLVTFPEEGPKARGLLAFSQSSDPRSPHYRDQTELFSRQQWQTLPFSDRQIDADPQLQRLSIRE
Chain of Bcl-2-like protein 10 (Q9HD36 whole entry): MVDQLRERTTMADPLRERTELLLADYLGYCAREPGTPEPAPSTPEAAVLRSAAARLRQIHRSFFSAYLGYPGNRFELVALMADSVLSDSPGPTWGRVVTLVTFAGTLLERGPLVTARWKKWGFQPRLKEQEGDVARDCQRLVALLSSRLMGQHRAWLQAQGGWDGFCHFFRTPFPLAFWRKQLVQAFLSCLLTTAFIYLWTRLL
Chain of Protein Tat (P04608 whole entry): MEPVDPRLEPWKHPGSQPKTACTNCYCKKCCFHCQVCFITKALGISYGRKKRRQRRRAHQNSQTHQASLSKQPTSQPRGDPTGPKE

SMILES: COc1ccc(-n2nc(C(=O)N3CCN(Cc4ccc5c(c4)OCO5)CC3)c3ccccc3c2=O)cc1
IC50 [1]: > 100 µM (inactive) | IC50 [2]: > 100 µM (not active)

SMILES: O=C(Nc1ccc(S(=O)(=O)O)cc1)c1ccc(CN2CCc3ccccc3C2)cc1
IC50 [3]: > 20 µM (inactive) | IC50 [4]: > 20 µM (inactive) | IC50 [5]: > 20 µM (inactive)

SMILES: N#CC(c1ccc(Cl)nn1)c1c(F)cccc1Cl (centres undefined)
AC50 [6]: 4.04 µM (active)

SMILES: Cc1ccc(OC(C)C(=O)Nc2ccc(Cl)cc2Cl)c([N+](=O)[O-])n1 (centres undefined)
EC50 [7]: > 50 µM (inactive)

SMILES: Cc1ccc(S(=O)(=O)c2c(C)nn(C(C)(C)C)c2OC(=O)C(C)(C)C)cc1
EC50 [8]: 5.15 µM (active) | EC50 [9]: > 29.9 µM (not active)

SMILES: CCCc1ccc(C(=O)Nc2cc(Cl)ccc2C(=O)O)cc1
IC50 [10]: 4.54 µM (active)

SMILES: Cc1cc(=O)n(-c2ccccc2)s1
IC50 [10]: > 25 µM (inactive)

SMILES: COc1ccc(C(C#N)c2ccc(Cl)nn2)cc1 (centres undefined)
AC50 [6]: 6.48 µM (active)

SMILES: C=C(NNc1c(F)c(F)nc(F)c1F)c1ccncc1
IC50 [13]: > 17 µM (not active)

SMILES: Cc1cc(-n2c(=O)c(C#N)cc3c(=O)n4ccccc4nc32)no1
EC50 [14]: 10.1 µM (inactive) | EC50 [15]: 4.43 µM (active)

SMILES: CC(=N)/C(C#N)=C(/O)CSc1nnc(NC(C)C)s1
IC50 [16]: 23.7 µM (active) | IC50 [17]: 16.3 µM (not active) | IC50 [18]: < 0.023 µM (not active) | IC50 [19]: > 109 µM (not active) | IC50 [20]: > 100 µM (active) | CC50 [21]: > 40 µM (active)

SMILES: Cc1ccc(OCc2cn3cc(Cl)ccc3n2)c([N+](=O)[O-])n1
EC50 [7]: > 50 µM (inactive)

SMILES: O=S(=O)(Nc1cnc2ccccc2c1)c1cc(Cl)cc(Cl)c1O
IC50 [22]: > 100 µM (not active) | IC50 [23]: 69.6 µM (active)

SMILES: COc1ccc(OC)c(S(=O)(=O)Nc2ccc3ccccc3c2)c1
IC50 [22]: > 10 µM (inconclusive) | IC50 [23]: > 10 µM (inactive)

The remaining lines, values ahead:

IC50 [11]: > 50 µM (inactive)
SMILES: O=C(NCC1CCCO1)c1ccc(COCC(F)(F)C(F)F)cc1 (centres undefined)

IC50 [1]: 54.6 µM (active) | IC50 [2]: > 25 µM (not active) | IC50 [12]: > 100 µM (active)
SMILES: CCc1c(C)sc(NC(=O)OC)c1C(=O)N1CCCCC1

EC50 [8]: > 29.9 µM (not active) | EC50 [9]: > 29.9 µM (not active)
SMILES: O=S(=O)(Oc1ccccc1N1CCCCC1)c1ccccc1

IC50 [11]: > 50 µM (inactive)
SMILES: O=C(Nc1ccc(Cl)c(Cl)c1)N1CC=CCC1

EC50 [14]: > 49.8 µM (inactive) | EC50 [15]: 32.2 µM (not active)
SMILES: N#Cc1c(-n2cccc2C=O)sc2c1CCCC2

IC50 [24]: 0.84 µM (active) | IC50 [16]: 2 µM (active) | IC50 [25]: 1.83 µM (active) | IC50 [26]: 5.02 µM (active)
SMILES: O=C(OC1CCCCC1)c1ccc2c(c1)C1C=CCC1C(C(=O)O)N2 (centres undefined)
